Laboratory results from paper doi:10.1101/757047v1 (biorxiv, 2019).
Where two headings read alike, the source gives them in different places.

What was measured:
GAK [1] = biological target: T1, GAK (Homo sapiens, UniProt O14976); assay: biochemical
T1 sequence (O14976 12-347 limits assumed): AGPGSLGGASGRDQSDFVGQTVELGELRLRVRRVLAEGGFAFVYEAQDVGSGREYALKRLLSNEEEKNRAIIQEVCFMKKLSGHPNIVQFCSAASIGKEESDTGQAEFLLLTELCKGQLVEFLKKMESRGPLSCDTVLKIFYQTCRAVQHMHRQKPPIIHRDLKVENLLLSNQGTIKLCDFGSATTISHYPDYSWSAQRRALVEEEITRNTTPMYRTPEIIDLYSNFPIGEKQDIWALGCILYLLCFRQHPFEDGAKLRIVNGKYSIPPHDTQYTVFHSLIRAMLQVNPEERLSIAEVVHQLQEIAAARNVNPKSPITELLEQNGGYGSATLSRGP

SLK [2] = biological target: T2, SLK (Homo sapiens, UniProt Q9H2G2); assay: biochemical
T2 sequence (Q9H2G2 34-292): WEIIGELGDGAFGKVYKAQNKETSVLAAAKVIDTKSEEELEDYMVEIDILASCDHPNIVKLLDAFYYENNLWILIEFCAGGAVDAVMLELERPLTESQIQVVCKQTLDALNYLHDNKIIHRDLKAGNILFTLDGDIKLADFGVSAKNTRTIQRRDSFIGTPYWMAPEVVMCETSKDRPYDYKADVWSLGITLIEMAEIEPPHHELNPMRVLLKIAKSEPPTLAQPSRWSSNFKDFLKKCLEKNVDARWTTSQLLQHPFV

STK10 [3] = biological target: T3, STK10 (Homo sapiens, UniProt O94804); assay: biochemical
T3 sequence (O94804 36-294 limits assumed): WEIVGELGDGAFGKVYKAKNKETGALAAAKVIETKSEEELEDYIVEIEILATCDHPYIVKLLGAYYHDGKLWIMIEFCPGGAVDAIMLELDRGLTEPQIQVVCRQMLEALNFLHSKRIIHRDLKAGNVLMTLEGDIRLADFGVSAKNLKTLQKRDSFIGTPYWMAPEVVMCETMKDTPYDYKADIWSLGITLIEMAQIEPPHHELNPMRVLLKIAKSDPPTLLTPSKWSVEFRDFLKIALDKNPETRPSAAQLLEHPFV

[4] = biological target: T4, full length GAK protein N-terminally fused with NanoLuc luciferase (Homo sapiens, UniProt O14976); assay: cell-based; parameters: species or system HEK293T
T4 sequence (O14976 2-1311): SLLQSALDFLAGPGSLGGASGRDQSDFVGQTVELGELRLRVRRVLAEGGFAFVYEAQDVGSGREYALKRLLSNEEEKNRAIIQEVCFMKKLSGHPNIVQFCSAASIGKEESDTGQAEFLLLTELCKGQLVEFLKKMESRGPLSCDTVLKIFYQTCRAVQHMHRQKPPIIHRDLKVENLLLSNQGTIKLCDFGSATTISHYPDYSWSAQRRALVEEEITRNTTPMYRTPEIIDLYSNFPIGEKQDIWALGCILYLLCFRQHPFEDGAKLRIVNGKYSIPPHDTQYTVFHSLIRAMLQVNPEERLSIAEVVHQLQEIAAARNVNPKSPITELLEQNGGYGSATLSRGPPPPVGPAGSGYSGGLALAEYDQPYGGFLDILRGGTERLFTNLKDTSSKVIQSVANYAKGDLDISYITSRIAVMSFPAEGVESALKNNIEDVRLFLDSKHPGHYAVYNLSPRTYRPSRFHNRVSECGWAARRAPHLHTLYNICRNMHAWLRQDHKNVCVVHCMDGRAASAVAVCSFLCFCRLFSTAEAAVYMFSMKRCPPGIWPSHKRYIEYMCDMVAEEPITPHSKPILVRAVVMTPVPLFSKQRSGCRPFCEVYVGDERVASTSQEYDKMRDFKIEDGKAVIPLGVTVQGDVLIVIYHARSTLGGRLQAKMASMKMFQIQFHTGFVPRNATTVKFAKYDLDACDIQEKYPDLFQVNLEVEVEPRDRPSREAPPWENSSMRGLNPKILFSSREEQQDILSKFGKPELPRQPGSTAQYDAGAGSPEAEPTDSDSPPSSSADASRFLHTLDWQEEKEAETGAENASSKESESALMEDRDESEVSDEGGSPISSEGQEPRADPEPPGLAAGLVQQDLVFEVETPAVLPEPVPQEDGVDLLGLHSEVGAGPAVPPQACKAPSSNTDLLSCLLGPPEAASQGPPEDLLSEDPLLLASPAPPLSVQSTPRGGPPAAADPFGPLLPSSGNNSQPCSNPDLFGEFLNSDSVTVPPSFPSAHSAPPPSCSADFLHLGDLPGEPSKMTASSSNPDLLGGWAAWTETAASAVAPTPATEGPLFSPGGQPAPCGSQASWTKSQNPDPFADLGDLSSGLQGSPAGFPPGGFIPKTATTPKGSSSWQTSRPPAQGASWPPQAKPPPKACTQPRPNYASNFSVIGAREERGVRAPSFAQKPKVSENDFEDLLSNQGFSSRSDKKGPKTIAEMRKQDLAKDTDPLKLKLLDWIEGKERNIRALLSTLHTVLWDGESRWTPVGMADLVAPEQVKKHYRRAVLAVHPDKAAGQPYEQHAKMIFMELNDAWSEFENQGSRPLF

GAK [5] = biological target: T1, GAK; assay: biochemical; remark: listed apart in the source
SLK [6] = biological target: T2, SLK; assay: biochemical; remark: listed apart in the source
STK10 [7] = biological target: T3, STK10; assay: biochemical; remark: listed apart in the source
[8] = biological target: T4, full length GAK protein N-terminally fused with NanoLuc luciferase; assay: cell-based; parameters: species or system HEK293T; remark: listed apart in the source
SLK [9] = biological target: T2, SLK; assay: biochemical; remark: listed apart in the source
[10] = biological target: T4, full length GAK protein N-terminally fused with NanoLuc luciferase; assay: cell-based; parameters: species or system HEK293T; remark: listed apart in the source
GAK [11] = biological target: T1, GAK; assay: biochemical; remark: listed apart in the source
GAK [12] = biological target: T1, GAK; assay: biochemical; remark: listed apart in the source
SLK [13] = biological target: T2, SLK; assay: biochemical; remark: listed apart in the source
STK10 [14] = biological target: T3, STK10; assay: biochemical; remark: listed apart in the source
[15] = biological target: T4, full length GAK protein N-terminally fused with NanoLuc luciferase; assay: cell-based; parameters: species or system HEK293T; remark: listed apart in the source
SLK [16] = biological target: T2, SLK; assay: TR-FRET binding displacement assay
STK10 [17] = biological target: T3, STK10; assay: TR-FRET binding displacement assay

Row | SMILES | Ki (GAK [1]) [nM] | Ki (SLK [2]) [nM] | Ki (STK10 [3]) [nM] | IC50 [4] [nM] | Ki (SLK [6]) [nM] | Ki (STK10 [7]) [nM] | IC50 [8] [nM] | Ki (GAK [12]) [nM] | IC50 [15] [nM] | also measured
1 | COc1cc(Nc2c(C#N)cnc3ccc(I)cc23)cc(OC)c1OC [compound 46, 46] | 4.8 | 9700 | 4200 | 260 |  |  |  |  |  | 
2 | COc1cc(Nc2c(C#N)cnc3ccc(S(C)(=O)=O)cc23)cc(OC)c1OC [compound 49, 49] | 210 | 1200 | 1500 | > 5000 |  |  |  |  |  | 
3 | Fc1ccccc1Nc1ccnc2ccc(Br)cc12 [compound 111, 111] |  |  |  |  | > 55000 | 30000 | 2600 |  |  | Ki (GAK [5]): 49 nM
4 | COc1cc(Nc2c(C#N)cnc3ccc(Cl)cc23)cc(OC)c1OC [compound 44, 44] | 3.8 | 53000 | 26000 | 240 |  |  |  |  |  | 
5 | C#Cc1cccc(Nc2ncnc3cc(C#N)ccc23)c1 [compound 67, 67] |  |  |  |  |  |  |  |  |  | Ki (SLK [9]): 260 nM; IC50 [10]: > 5000 nM; Ki (GAK [11]): 100 nM
6 | Fc1cc(F)cc(Nc2ccnc3ccc(Br)cc23)c1 [compound 105, 105] |  |  |  |  | > 55000 | > 55000 | > 5000 |  |  | Ki (GAK [5]): 12 nM
7 | C#Cc1cccc(Nc2c(C#N)cnc3cc(Br)ccc23)c1 [compound 85, 85] |  |  |  |  |  |  |  | 27 | > 5000 | Ki (SLK [13]): 160 nM; Ki (STK10 [14]): 130 nM
8 | COc1cc(Nc2c(C#N)cnc3cc(Br)ccc23)cc(OC)c1OC [compound 51, 51] | 2.9 | 710 | 440 | 140 |  |  |  |  |  | 
9 | COc1ccc2ncc(C#N)c(Nc3cc(OC)c(OC)c(OC)c3)c2c1 [compound 47, 47] | 2.4 | 3200 | 1900 | 92 |  |  |  |  |  | 
10 | Fc1ccc(Nc2ccnc3ccc(Br)cc23)cc1F [compound 104, 104] |  |  |  |  | > 55000 | > 55000 | > 5000 |  |  | Ki (GAK [5]): 11 nM
11 | COc1cc(Nc2c(C#N)cnc3cc(I)ccc23)cc(OC)c1OC [compound 52, 52] | 5.2 | 490 | 200 | 200 |  |  |  |  |  | 
12 | COc1cc2ncc(C#N)c(Nc3cc(OC)c(OC)c(OC)c3)c2cc1OC [compound 48, 48] |  |  |  |  |  |  |  |  |  | Ki (GAK [1]; read-out: GAK Ki, binder): 0.85 nM; Ki (SLK [2]; read-out: SLK Ki, binder): 570 nM; Ki (STK10 [3]; read-out: STK10 Ki, binder): 420 nM; IC50 ([4]; read-out: NanoBRET GAK IC50, binder): 6 nM
13 | Fc1ccc(Nc2ccnc3ccc(Br)cc23)cc1 [compound 108, 108] |  |  |  |  | 36000 | 21000 | 940 |  |  | 
14 | Brc1cccc(Nc2ccnc3ccc(Br)cc23)c1 [compound 112, 112] |  |  |  |  | > 55000 | > 55000 | > 5000 |  |  | Ki (GAK [5]): 72 nM
15 | C#Cc1cccc(Nc2c(C#N)cnc3ccc(Cl)cc23)c1 [compound 77, 77] |  |  |  |  |  |  |  | 16 | 3200 | Ki (SLK [13]): 710 nM; Ki (STK10 [14]): 720 nM
16 | C#Cc1cccc(Nc2c(C#N)cnc3ccc(Br)cc23)c1 [compound 78, 78] |  |  |  |  |  |  |  | 17 | 4400 | Ki (SLK [13]): 1200 nM; Ki (STK10 [14]): 1100 nM
17 | Fc1ccc(Nc2ncnc3ccc(Br)cc23)cc1 [compound 109, 109] |  |  |  |  | > 55000 | > 55000 | > 5000 |  |  | Ki (GAK [5]): 120 nM
18 | C#Cc1cccc(Nc2c(C#N)cnc3ccc(F)cc23)c1 [compound 76, 76] |  |  |  |  |  |  |  | 26 | 3800 | Ki (SLK [13]): 540 nM; Ki (STK10 [14]): 580 nM
19 | C#Cc1cccc(Nc2c(C#N)cnc3ccc(S(C)(=O)=O)cc23)c1 [compound 80, 80] |  |  |  |  |  |  |  | 180 | > 5000 | Ki (SLK [13]): > 55000 nM; Ki (STK10 [14]): 42000 nM
20 | COc1ccc2c(Nc3cc(OC)c(OC)c(OC)c3)c(C#N)cnc2c1 [compound 53, 53] | 2 | 2100 | 1200 | 78 |  |  |  |  |  | 
21 | Fc1cccc(Nc2ccnc3ccc(Br)cc23)c1 [compound 110, 110] |  |  |  |  | > 55000 | > 55000 | 1900 |  |  | Ki (GAK [5]): 19 nM
22 | C#Cc1cccc(Nc2c(C#N)cnc3cc(I)ccc23)c1 [compound 86, 4-((3-ethynylphenyl)amino)-7-iodoquinoline-3-carbonitrile] |  |  |  |  |  |  |  | 19 | > 5000 | Ki (SLK [16]): 75 nM; Ki (STK10 [17]): 80 nM
23 | C#Cc1cccc(Nc2c(C#N)cnc3cc(Cl)ccc23)c1 [compound 84, 84] |  |  |  |  |  |  |  | 28 | > 5000 | Ki (SLK [13]): 180 nM; Ki (STK10 [14]): 210 nM
24 | Fc1cc(Nc2ccnc3ccc(Br)cc23)cc(F)c1F [compound 103, 103] |  |  |  |  | > 55000 | > 55000 | 4400 |  |  | Ki (GAK [5]): 23 nM
25 | COc1cc(Nc2c(C#N)cnc3cc(Cl)ccc23)cc(OC)c1OC [compound 50, 50] | 6.6 | 1400 | 790 | 470 |  |  |  |  |  | 
26 | COc1cc(Nc2c(C#N)cnc3ccccc23)cc(OC)c1OC [compound 43, 43] | 8.8 | 7700 | 4700 | 330 |  |  |  |  |  | 
27 | COc1cc(Nc2c(C#N)cnc3ccc(Br)cc23)cc(OC)c1OC [compound 45, 45] | 2.3 | 9400 |  | 200 |  |  |  |  |  | 
28 | C#Cc1cccc(Nc2c(C#N)cnc3ccc(I)cc23)c1 [compound 79, 79] |  |  |  |  |  |  |  | 20 | > 5000 | Ki (SLK [13]): 1100 nM; Ki (STK10 [14]): 1000 nM
29 | C#Cc1cccc(Nc2c(C#N)cnc3ccccc23)c1 [compound 75, 75] |  |  |  |  |  |  |  | 18 | 1500 | Ki (SLK [13]): 350 nM; Ki (STK10 [14]): 340 nM
30 | Brc1cccc(Nc2ncnc3ccc(Br)cc23)c1 [compound 113, 113] |  |  |  |  | 9400 | 6000 | > 5000 |  |  | Ki (GAK [5]): 84 nM
